Experimental findings from patent US11945787B2, “Substituted imidazoles for preventing and/or treating cell or tissue necrosis” (Ela Pharma Ltd, priority 2015, dated 2024) are described below.

In assay [1] the test system is PC12 cells. Description: KCN-induced necrosis of PC12 cells, LDH release. Type of assay: cell-based, rat. Particulars: for inhibition at 1 µM / inhibition at 0.0001 µM / inhibition at 0.001 µM / inhibition at 0.01 µM / inhibition at 0.1 µM: Rattus norvegicus, PC-12, 5 h, KCN, PC12, LDH release (Table 5); for inhibition at 1 µM: read-out: % protection at 1 μM; for inhibition at 0.0001 µM / % protection at indicated concentration 0.1 nM: 0.1 nM; for inhibition at 0.0001 µM: read-out: % protection at 0.1 nM; for inhibition at 0.001 µM / % protection at indicated concentration 1 nM: 1 nM; for inhibition at 0.001 µM: read-out: % protection at 1 nM; for inhibition at 0.01 µM / % protection at indicated concentration 10 nM: 10 nM; for inhibition at 0.01 µM: read-out: % protection At 10 nM; for inhibition at 0.1 µM: read-out: % protection at 0.1 μM. How it is done:
The rat pheochromocytoma PC12 cell line was propagated in DMEM medium (Beit Haemek, Israel), supplemented with 5% heat-inactivated calf serum, 10% heat-inactivated horse serum, 2 mM L-glutamine, 100 U/ml penicillin and 100 μg/ml streptomycin. PC12 cells in logarithmic phase were seeded at a concentration of 1.2×10^5/well in 96-well plates and incubated overnight.
Thereafter, the cells were washed twice and maintained in RPMI-1640 (U-937cells) and DMEM (PC-12 cells) glucose-free medium, supplemented with 2 mM pyruvate and 10% dialyzed FCS for one hour. Then cells were treated with or without KCN (Merck, Germany) at the indicated concentrations for 7 hours (U-937 cells), or for 5 hours (PC12 cells).
Elastase inhibitors II (MeOSuc-AAPA-CMK) and elastase inhibitor III (MeOSuc-AAPV-CMK) were purchased from Calbiochem-Novabiochem, USA. Compound Gly-Phe diazomethylketone was purchased from MP Biomedicals, USA. All the compounds disclosed in Table 1 hereinabove were purchased from ChemDiv, San Diego, CA. The compounds were dissolved in DMSO and were administered 30 min before addition of the cell death inducer. The final concentration of DMSO, added to all samples, was 0.1%, which had no effect by itself siRNA and cell transfection
The amount of LDH released from lysed cells is a sensitive measure of cell death. Necrotic cell death was measured in 96-well plates using Promega CytoTox 96 LDH assay kit. LDH content from the cells lysed in 0.1% Triton X-100 for 10 min was used as an index of total LDH. The LDH released in culture medium was used as an index of necrotic cell death and the percentage from total LDH was calculated. The protection by the inhibitor was calculated based on comparing percentage of LDH release in the presence and in the absence of the inhibitor. The inhibitors were also added to totals, blanks and controls. Absorbance at 490 nm was measured by ELISA reader (BioTec).
These compounds were tested for their ability to inhibit necrosis induced by KCN in PC12 cells. The necrotic mode of cell death in this system was validated as previously described. PC12 cells were challenged with KCN as described above. The protective results of the compounds against KCN-induced necrosis assessed using LDH release method are shown below in Table 5. The IC50 values of these inhibitors is in the range of tens to single nanomolar.

Assay [2] relates to elastase-like activity. Description: Elastase-like activity in lysates of KCN-treated U-937 cells (MAAPV substrate). Type of assay: biochemical, human. Particulars: lysates after 10 mM KCN 30 min; data not shown.

Take `Nc1ncc(S(=O)(=O)Nc2ccc(F)cc2F)cn1` [G830-0845, 2-amino-N-(2,4-difluorophenyl)pyrimidine-5-sulfonamide]: the inhibition at 1 µM in assay [1] came out at 54%.

Turning to `Cc1[nH]c(=O)[nH]c(=O)c1S(=O)(=O)N1CCCCC1C` (stereo not drawn) [E214-0380, 6-methyl-5-((2-methylpiperidin-1-yl)sulfonyl)pyrimidine-2,4(1H,3H)-dione], in assay [1], the inhibition at 0.0001 µM amounted to 18%, the inhibition at 0.001 µM worked out at 21%, the inhibition at 0.01 µM turned out to be 39% and the inhibition at 0.1 µM was 51%. Also, the inhibition at 1 µM in assay [1] is 83%.

As to `COc1cc(OC)cc(-c2nc3ccc(Br)cc3c(=O)o2)c1` [3952-1000, 6-bromo-2-(3,5-dimethoxyphenyl)-4H-benzo[d][1,3]oxazin-4-one], in assay [1] (KCN-induced necrosis (Table 2)), the “% protection at indicated concentration 0.1 nM” value is reported as 35%, the “% protection at indicated concentration 1 nM” value is 33%, the “% protection at indicated concentration 10 nM” value was found to be 38% and the “% protection at indicated concentration 100 nM” value came out at 35%. The “% protection at indicated concentration 1 μM” value in assay [1] (KCN-induced necrosis (Table 2)) is 77%. For the same molecule, in assay [1], the inhibition at 0.0001 µM was 35%, the inhibition at 0.001 µM was 33%, the inhibition at 0.01 µM amounted to 38% and the inhibition at 0.1 µM was 35%. For the same molecule, in assay [1], the inhibition at 1 µM worked out at 77%.

As for `O=C(c1ccccc1Cl)N1CCN=C1N1CCCCC1` [M059-0326, (2-chlorophenyl)-[2-(1-piperidyl)-4,5-dihydroimidazol-1-yl] methanone], the “protection of cells at 10 μM” value in assay [1] (10 μM, KCN-induced necrosis (Table 2)) is given as 10 μM confers protection 56% of cells.

In the case of `CCc1ccccc1S(=O)(=O)Nc1ccc(N2CCN(CC)CC2)cc1C(=O)O` [F684-0507, 2-(2-ethylphenylsulfonamido)-5-(4-ethylpiperazin-1-yl)benzoic acid], in assay [1], the inhibition at 1 µM is 56%.

For the molecule `COc1cc(C(=O)n2nc(C)cc2C)cc(OC)c1OC` [3346-3249, (3,5-dimethyl-1H-pyrazol-1-yl)(3,4,5-trimethoxyphenyl)methanone], the inhibition at 1 µM in assay [1] was found to be 52%.

As to `CCOC(=O)C1=C(C)N(CC(=O)NCc2ccc(C)cc2)c2ncnn2C1c1ccccc1` (stereo not drawn) [D529-0049, ethyl 5-methyl-4-(2-((4-methylbenzyl)amino)-2-oxoethyl)-7-phenyl-4,7-dihydro-[1,2,4]triazolo[1,5-a]pyrimidine-6-carboxylate], in assay [1], the inhibition at 0.01 µM worked out at 33%, the inhibition at 0.1 µM was 42% and the inhibition at 1 µM was 51%.

Turning to `CC(=O)Oc1ccc2nc(-c3cccc(Br)c3)oc(=O)c2c1` [4334-1600, 2-(3-bromophenyl)-4-oxo-4H-benzo[d][1,3]oxazin-6-yl acetate], in assay [1] (KCN-induced necrosis (Table 2)), the “% protection at indicated concentration 0.1 nM” value was 28%, the “% protection at indicated concentration 1 nM” value was 30%, the “% protection at indicated concentration 10 nM” value was 28% and the “% protection at indicated concentration 100 nM” value turned out to be 70%. In assay [1] (KCN-induced necrosis (Table 2)), the “% protection at indicated concentration 1 μM” value came out at 74%. Besides, in assay [1], the inhibition at 0.0001 µM was found to be 28%, the inhibition at 0.001 µM came to 30%, the inhibition at 0.01 µM came out at 28% and the inhibition at 0.1 µM stood at 71%. The inhibition at 1 µM in assay [1] stood at 74%.

Turning to `CC(C)N1CCN(C(=O)CN2C(=O)C3CCCN3C(=O)c3cc(F)ccc32)CC1` (stereo not drawn) [M284-0488, 7-fluoro-10-(2-(4-isopropylpiperazin-1-yl)-2-oxoethyl)-2,3-dihydro-1H-benzo[e]pyrrolo[1,2-a][1,4]diazepine-5,11(10H,11aH)-dione], in assay [1], the inhibition at 0.0001 µM was 35%, the inhibition at 0.001 µM was found to be 51%, the inhibition at 0.01 µM is 82% and the inhibition at 0.1 µM stood at 72%. Further, the inhibition at 1 µM in assay [1] was found to be 80%.

For `O=C(NCCNC(=O)c1nc(Cn2cc(Cl)cn2)no1)c1cccc(F)c1` [8019-5381, 3-((4-chloro-1H-pyrazol-1-yl)methyl)-N-(2-(3-fluorobenzamido)ethyl)-1,2,4-oxadiazole-5-carboxamide], in assay [1], the inhibition at 0.01 µM is 32%, the inhibition at 0.1 µM worked out at 49% and the inhibition at 1 µM was 56%.

With `CCN1CCN(C2=NCCN2C(=O)C2CCCC2)CC1` [M059-1012, cyclopentyl(2-(4-ethylpiperazin-1-yl)-4,5-dihydro-1H-imidazol-1-yl)methanone], the inhibition at 0.1 µM in assay [1] is 51%.

`CC(C)c1cc(C2CCCN2C(=O)C2CC2)no1` (stereo not drawn) [Z632-2266, cyclopropyl(2-(5-isopropylisoxazol-3-yl)pyrrolidin-1-yl)methanone]: in assay [1], the inhibition at 0.0001 µM came out at 13%, the inhibition at 0.001 µM stood at 22%, the inhibition at 0.01 µM was 46% and the inhibition at 0.1 µM worked out at 78%. Further, the inhibition at 1 µM in assay [1] came to 93%.

As for `O=C(C1CCCC1)N1CCN=C1N1CCCC1` [M059-0082, cyclopentyl(2-(pyrrolidin-1-yl)-4,5-dihydro-1H-imidazol-1-yl)methanone], in assay [1] (KCN-induced necrosis (Table 2)), the “% protection at indicated concentration 0.1 nM” value came out at 33%, the “% protection at indicated concentration 1 nM” value is 25%, the “% protection at indicated concentration 10 nM” value is 51% and the “% protection at indicated concentration 100 nM” value stood at 79%. Besides, in assay [1] (KCN-induced necrosis (Table 2)), the “% protection at indicated concentration 1 μM” value came out at 85%.

In the case of `Cc1ccnc(Nc2nc(-c3cc(C)c(C)cc3C)cs2)c1` [M008-0111, N-(4-methylpyridin-2-yl)-4-(2,4,5-trimethylphenyl)thiazol-2-amine], in assay [1] (KCN-induced necrosis (Table 2)), the “% protection at indicated concentration 0.1 nM” value was found to be 29%, the “% protection at indicated concentration 1 nM” value is recorded as 36%, the “% protection at indicated concentration 10 nM” value is listed as 38% and the “% protection at indicated concentration 100 nM” value amounted to 46%. For the same molecule, in assay [1] (KCN-induced necrosis (Table 2)), the “% protection at indicated concentration 1 μM” value worked out at 90%. Also, in assay [1], the inhibition at 0.0001 µM was 29%, the inhibition at 0.001 µM came to 36%, the inhibition at 0.01 µM amounted to 38% and the inhibition at 0.1 µM was found to be 46%. Moreover, the inhibition at 1 µM in assay [1] amounted to 90%.

Turning to `CCOC(=O)[C@H]1O[C@@H]1C(=O)N[C@@H](CC(C)C)C(=O)NCCC(C)C` [E-64d], in assay [2], the “effect on elastase-like proteolytic activity” value was “no effect”.

Take `O=c1oc(-c2ccco2)nc2sc3c(c12)CCCC3` [4789-3852, 2-(furan-2-yl)-5,6,7,8-tetrahydro-4H-benzo[4,5]thieno[2,3-d][1,3]oxazin-4-one]: in assay [1], the inhibition at 0.0001 µM is 18%, the inhibition at 0.001 µM is 25%, the inhibition at 0.01 µM came out at 55% and the inhibition at 0.1 µM is 61%. Further, in assay [1], the inhibition at 1 µM amounted to 81%.

For `O=C(CN1C(=O)C2CCCN2C(=O)c2ccc(F)cc21)Nc1ccc(F)c(F)c1` (stereo not drawn) [M284-0942, N-(3,4-difluorophenyl)-2-(8-fluoro-5,11-dioxo-2,3,11,11a-tetrahydro-1H-benzo[e]pyrrolo[1,2-a][1,4]diazepin-10(5H)-yl)acetamide], the inhibition at 0.1 µM in assay [1] was 52%.

For `CN(C)c1ccc(Nc2nc(-c3ccc(Cl)cc3)cs2)cc1` [4112-3656, N1-(4-(4-chlorophenyl)thiazol-2-yl)-N4,N4-dimethylbenzene-1,4-diamine], in assay [1] (KCN-induced necrosis (Table 2)), the “% protection at indicated concentration 0.1 nM” value came to 30%, the “% protection at indicated concentration 1 nM” value turned out to be 25%, the “% protection at indicated concentration 10 nM” value is on record as 55% and the “% protection at indicated concentration 100 nM” value is 73%. The “% protection at indicated concentration 1 μM” value in assay [1] (KCN-induced necrosis (Table 2)) was determined as 77%. Moreover, in assay [1], the inhibition at 0.0001 µM is 30%, the inhibition at 0.001 µM was 25%, the inhibition at 0.01 µM was found to be 55% and the inhibition at 0.1 µM worked out at 73%. Also, the inhibition at 1 µM in assay [1] came out at 77%.
